Data taken from patent US10987369B2, “Pdia4 protein as a target for diagnosis, monitoring and treatment of diabetes” (ACADEMIA SINICA, priority 2014, dated 2021).

How the values were obtained:
GST-Pdia4 = molecular target: T1, GST-Pdia4 (Homo sapiens, UniProt P13667); assay: Bovine pancreatic trypsin inhibitor (BPTI)-based assay of disulfide isomerase activity; assay type: biochemical; settings: reduced BPTI as substrate, CP at different doses, FIG. 5B
T1 construct: made in house; host or cells: E. coli
T1 sequence (P13667 21-645): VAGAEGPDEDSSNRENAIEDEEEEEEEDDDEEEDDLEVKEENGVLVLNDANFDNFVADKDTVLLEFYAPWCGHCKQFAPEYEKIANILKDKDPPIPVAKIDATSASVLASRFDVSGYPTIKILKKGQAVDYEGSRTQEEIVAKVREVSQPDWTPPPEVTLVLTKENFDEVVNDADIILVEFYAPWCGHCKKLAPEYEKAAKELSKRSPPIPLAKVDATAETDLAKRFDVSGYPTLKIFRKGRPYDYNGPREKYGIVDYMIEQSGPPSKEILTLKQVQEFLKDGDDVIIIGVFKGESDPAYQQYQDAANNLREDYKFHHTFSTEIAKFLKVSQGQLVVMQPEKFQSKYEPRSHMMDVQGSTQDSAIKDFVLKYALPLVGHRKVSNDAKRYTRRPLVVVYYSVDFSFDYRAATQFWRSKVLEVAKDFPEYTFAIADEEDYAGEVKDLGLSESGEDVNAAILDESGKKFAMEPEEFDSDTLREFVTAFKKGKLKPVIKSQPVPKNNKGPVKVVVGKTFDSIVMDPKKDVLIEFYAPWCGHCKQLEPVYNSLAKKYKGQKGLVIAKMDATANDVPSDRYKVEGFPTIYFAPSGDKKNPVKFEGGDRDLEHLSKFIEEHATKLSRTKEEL
Protocol: Their postprandial blood glucose was determined using a glucometer. […] Their postprandial blood glucose was determined using a glucometer. Glutathione agarose bead-bound GST-Pdia4 (0.15 μg) were purified from E. coli bacteria.

lepr^db/db mice = assay: Postprandial blood glucose in treated lepr db/db mice; assay type: in vivo, mouse; settings: cytopiloyne 2.5 mg/kg daily, FIG. 5C
Protocol: Their postprandial blood glucose was determined using a glucometer. […] Their postprandial blood glucose was determined using a glucometer.
To deplete pancreatic β cells in mice. […] Postprandial blood glucose was measured. […] Postprandial blood glucose was measured.

pdia4^−/−lepr^db/db mice = assay: Postprandial blood glucose in treated pdia4-/- lepr db/db mice; settings: metformin 60 mg/kg BW, rosiglitazone 20 mg/kg BW or both, daily, FIG. 5A
Protocol: (A) lepr^db/db and pdia4^−/−lepr^db/db mice received a daily dose of PBS vehicle (Veh), metformin (MET, 60 mg/kg BW) and metformin (MET, 60 mg/kg BW)/rosiglitazone (ROS, 20 mg/kg BW). Their postprandial blood glucose was determined using a glucometer. […] (C) lepr^db/db mice received a daily dose of PBS vehicle (Veh), cytopiloyne (CP, 2.5 mg/kg), cytopiloyne (CP, 2.5 mg/kg)/metformin (MET, 60 mg/kg BW) and cytopiloyne (CP, 2.5 mg/kg)/metformin (MET, 60 mg/kg BW)/rosiglitazone (Ros, 20 mg/kg BW). Their postprandial blood glucose was determined using a glucometer.
To treat mice, PBS or a combination of cytopiloyne (2.5 mg/kg/day), metformin (60 mg/kg/day), and metformin (60 mg/kg/day) plus rosiglitazone (20 mg/kg/day) were fed for the indicated time. Postprandial blood glucose was measured. To treat pdia4^−/−lepr^db/db mice, PBS, metformin (60 mg/kg/day), and metformin (60 mg/kg/day) plus rosiglitazone (20 mg/kg/day) were fed for the indicated time. Postprandial blood glucose was measured.
After the overnight fasting, the mice had free access to food for 2 hr. fasting or postprandial blood glucose levels of the mice were measured using an Elite glucometer (Bayer).

| SMILES | enzymatic (disulfide isomerase) activity of Pdia4 (GST-Pdia4) | enzymatic (disulfide isomerase) activity of Pdia4 (GST-Pdia4; listed as Cytopiloyne) | postprandial blood glucose (lepr^db/db mice) | hyperglycemia (postprandial blood glucose) (pdia4^−/−lepr^db/db mice) |
| --- | --- | --- | --- | --- |
| CC#CC#CC#CC#CCCC(CO)O[C@@H]1O[C@H](CO)[C@@H](O)[C@H](O)[C@H]1O (stereo partly shown) [cytopiloyne] | inhibited Pdia4 activity | suppress the enzymatic activity of Pdia4 | lower postprandial blood glucose | – |
| CN(C)C(=N)N=C(N)N [metformin] | – | – | – | normalize hyperglycemia |
